Assay results: paper PMC11555526, “Development of 2-Aminoadenine-Based Proteolysis-Targeting Chimeras (PROTACs) as Novel Potent Degraders of Monopolar Spindle 1 and Aurora Kinases” (ACS Pharmacology & Translational Science, 2024)
Read-outs that look alike come from different tables or passages of the source.

Assays:
[1] = system: MV4-11 cells (naive); test: alamarBlue cell viability assay; format: cell-based, human; settings: 72 h treatment, MV4-11 cells (naive); for EC50: read-out: EC50 (concentration that decreases cell viability by 50%)
Description: Finally, to study the effect of the compounds on cancer cell survival, MV4-11 cells were treated with various concentrations of the chimeras and the cell viability was assessed after 72 h. […] As opposed to the parent inhibitor MPS1-IN-3, its derivatives except 40 were not cytotoxic (Figure S7B, Table 5). […] In addition, most of the SF1-based derivatives affected the viability of MV4-11 cells in nanomolar concentrations (Table 5).
For the alamarBlue cell viability assay, cells were seeded in 96-well plates and treated with indicated concentrations of the compounds or vehicle. A few hours before the experimental end point (72 h, unless otherwise stated), the cells were incubated with the alamarBlue reagent. Finally, fluorescence (excitation: 550 nm and emission: 600 nm) or absorbance (570 nm with reference at 600 nm) was measured on a Tecan Spark Multiplate reader (Tecan).

[2] = target: T1, TTK (MV4-11^HiBiT-TTK cells) (Homo sapiens, UniProt P33981); test: HiBiT assay, TTK degradation; format: cell-based; design: key to Dmax (maximal degradation) TTK: compounds with degradation less than 15% reported as “inactive”; settings: 6 h treatment, MV4-11^HiBiT-TTK cells; for DC50: read-out: DC50 (half-maximal degradation concentration) TTK; for Dmax: read-out: Dmax (maximal degradation) TTK
T1 construct: expressed in transfected cells; host or cells: MV4-11, lentiviral transduction (pRRL-PGK-HiBiT entry vector)
T1 sequence (P33981 1-857): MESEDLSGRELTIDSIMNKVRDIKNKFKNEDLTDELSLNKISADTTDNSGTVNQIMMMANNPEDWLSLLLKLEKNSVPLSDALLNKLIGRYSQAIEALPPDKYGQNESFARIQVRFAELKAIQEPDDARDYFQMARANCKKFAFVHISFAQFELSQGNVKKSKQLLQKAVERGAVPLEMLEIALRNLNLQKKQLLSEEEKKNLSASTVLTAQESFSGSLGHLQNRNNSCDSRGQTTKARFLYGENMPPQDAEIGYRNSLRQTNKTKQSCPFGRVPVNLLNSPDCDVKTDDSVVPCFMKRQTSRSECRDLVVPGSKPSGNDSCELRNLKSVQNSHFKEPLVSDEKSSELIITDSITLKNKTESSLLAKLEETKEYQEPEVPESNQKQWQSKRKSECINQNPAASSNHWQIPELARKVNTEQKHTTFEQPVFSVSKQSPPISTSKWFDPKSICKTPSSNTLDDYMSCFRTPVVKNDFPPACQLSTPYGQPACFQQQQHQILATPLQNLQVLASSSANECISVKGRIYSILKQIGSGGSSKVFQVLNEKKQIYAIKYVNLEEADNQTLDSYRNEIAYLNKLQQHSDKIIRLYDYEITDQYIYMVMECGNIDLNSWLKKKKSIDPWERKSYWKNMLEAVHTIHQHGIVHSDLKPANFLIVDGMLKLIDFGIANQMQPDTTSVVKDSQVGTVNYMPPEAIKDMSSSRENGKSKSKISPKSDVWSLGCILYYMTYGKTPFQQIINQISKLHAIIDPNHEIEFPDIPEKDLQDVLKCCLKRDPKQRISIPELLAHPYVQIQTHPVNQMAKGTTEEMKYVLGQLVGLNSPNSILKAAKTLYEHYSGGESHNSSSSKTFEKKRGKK
Description: (§1) The effects of the synthesized compounds on AURKA, AURKB, and TTK mitotic kinases were then assessed in cellular systems. For this, HiBiT cell lines were generated for all three mitotic kinases. A small 11 amino acid peptide fragment of luciferase (HiBiT) was fused to the coding sequence of the proteins and stably transduced in the MV4-11 cell line (MV4-11^AURKA-HiBiT, MV4-11^AURKB-HiBiT, and MV4-11^HiBiT-TTK).
(§2) The stable cell lines MV4-11^AURKA-HiBiT, MV4-11^AURKB-HiBiT, and MV4-11^HiBiT-TTK cells were generated by lentiviral infection. Lentivirus was produced using the respective HiBiT vector, plasmids psPAX2, and pMD2.G in HEK293 cells. The virus supernatant was filtered and MV4-11 cells were doubly infected with the supernatant. The cells were selected after 48 h of infection until the control cells were dead to get the stable cell line.
(§3) The cells stably expressing HiBiT-tagged protein were seeded into 96-well plates and treated with serial dilutions of compounds for the indicated time points. At the end point, the assay was performed using the Nano-Glo HiBiT Lytic Detection System (Promega) according to the manufacturer’s instruction. Luminescence was measured on a GloMax 96 Microplate Luminometer (Promega) or a Tecan Spark Multiplate reader (Tecan). DC50 was calculated using concentrations showing sigmoidal behavior with the dose–response (four parameters) equation in Prism (GraphPad).

[3] = target: T2, AURKA (MV4-11^AURKA-HiBiT cells) (Homo sapiens, UniProt O14965); test: HiBiT assay, AURKA degradation; format: cell-based; design: key to Dmax (maximal degradation) AURKA: compounds with degradation less than 15% reported as “inactive”; settings: 6 h treatment, MV4-11^AURKA-HiBiT cells; for DC50: read-out: DC50 (half-maximal degradation concentration) AURKA; for Dmax: read-out: Dmax (maximal degradation) AURKA
T2 construct: expressed in transfected cells; host or cells: MV4-11, lentiviral transduction
T2 sequence (O14965 1-403): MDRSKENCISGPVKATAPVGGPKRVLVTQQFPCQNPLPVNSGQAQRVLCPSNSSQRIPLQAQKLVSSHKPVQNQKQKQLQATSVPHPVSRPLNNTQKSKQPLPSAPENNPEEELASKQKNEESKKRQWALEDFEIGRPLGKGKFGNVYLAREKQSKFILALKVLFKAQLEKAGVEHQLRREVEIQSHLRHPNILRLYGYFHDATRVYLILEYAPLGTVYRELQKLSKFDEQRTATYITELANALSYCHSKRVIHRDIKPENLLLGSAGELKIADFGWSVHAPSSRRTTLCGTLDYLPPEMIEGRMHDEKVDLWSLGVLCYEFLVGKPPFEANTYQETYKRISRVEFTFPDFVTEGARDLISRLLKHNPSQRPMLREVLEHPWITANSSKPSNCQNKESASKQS
Description: as §1, §2, §3

[4] = target: T3, AURKB (MV4-11^AURKB-HiBiT cells) (Homo sapiens, UniProt Q96GD4); test: HiBiT assay, AURKB degradation; format: cell-based; design: key to Dmax (maximal degradation) AURKB: compounds with degradation less than 15% reported as “inactive”; settings: 6 h treatment; for DC50: read-out: DC50 (half-maximal degradation concentration) AURKB; for Dmax: read-out: Dmax (maximal degradation) AURKB
T3 construct: expressed in transfected cells; host or cells: MV4-11, lentiviral transduction (pRRL-PGK vector)
Description: as §1, §2, §3

T3 sequence (Q96GD4 1-345 isoform Q96GD4-5): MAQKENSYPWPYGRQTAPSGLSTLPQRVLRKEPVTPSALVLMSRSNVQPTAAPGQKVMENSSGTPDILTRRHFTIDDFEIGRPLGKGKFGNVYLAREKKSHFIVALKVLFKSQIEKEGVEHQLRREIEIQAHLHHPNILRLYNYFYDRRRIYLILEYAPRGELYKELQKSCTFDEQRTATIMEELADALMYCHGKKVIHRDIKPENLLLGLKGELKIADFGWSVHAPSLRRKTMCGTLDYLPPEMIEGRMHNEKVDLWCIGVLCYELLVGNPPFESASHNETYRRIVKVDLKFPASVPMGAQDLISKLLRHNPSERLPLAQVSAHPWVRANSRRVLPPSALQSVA

Compound	EC50 ([1]; Homo sapiens)	DC50 [2]	Dmax [2]	DC50 [3]	Dmax [3]	DC50 [4]	Dmax [4]	EC50 (concentration that decreases cell viability by 50%) [1]	Dmax (maximal degradation) TTK [2]	Dmax (maximal degradation) AURKA [3]	DC50 (half-maximal degradation concentration) AURKB [4]	Dmax (maximal degradation) AURKB [4]	EC50 [1]	DC50 (half-maximal degradation concentration) TTK [2]	DC50 (half-maximal degradation concentration) AURKA [3]
CC(C)S(=O)(=O)c1ccccc1Nc1nc(Nc2ccc(N3CCNCC3)cc2)nc2[nH]cnc12 [SF1]	0.028 µM	1.27 µM	88.8%	0.274 µM	61.9%	0.993 µM	70.2%	–	–	–	–	–	–	–	–
c1nc2c(NC3CCCCC3)nc(Nc3ccc(N4CCNCC4)cc3)nc2[nH]1 [azareversine, reference compound]	0.123 µM	0.118 µM	47.7%	0.0995 µM	52.6%	0.0793 µM	44.5%	–	–	–	–	–	–	–	–
COc1cc(N2CCN(C(=O)CNC(=O)CCCC(=O)Nc3cccc4c3C(=O)N(C3CCC(=O)NC3=O)C4=O)CC2)ccc1Nc1nc(Nc2ccccc2S(=O)(=O)C(C)C)c2nc[nH]c2n1 (centres unmarked) [Compound 21]	–	0.026 µM	–	0.056 µM	–	–	–	— (compounds with decrease of cell viability less than 50% were not calculated and reported as “—”)	41.90%	59.30%	– (compounds with degradation less than 25% were not calculated and reported as “–”)	inactive	–	–	–
CC(C)S(=O)(=O)c1ccccc1Nc1nc(Nc2ccc(N3CCN(C(=O)CCC(=O)NCCNc4cccc5c4C(=O)N(C4CCC(=O)NC4=O)C5=O)CC3)cc2)nc2[nH]cnc12 (centres unmarked) [Compound 30]	–	0.468 µM	–	0.017 µM	–	–	–	–	27.20%	49.10%	– (compounds with degradation less than 25% were not calculated and reported as “–”)	19.90%	0.405 µM	–	–
CC(C)S(=O)(=O)c1ccccc1Nc1nc(Nc2ccc(N3CCN(C(=O)COCCOCC(=O)Nc4cccc5c4C(=O)N(C4CCC(=O)NC4=O)C5=O)CC3)cc2)nc2[nH]cnc12 (centres unmarked) [Compound 18]	–	–	–	1.26 µM	–	–	–	–	inactive	62.10%	– (compounds with degradation less than 25% were not calculated and reported as “–”)	22.20%	1.13 µM	– (compounds with degradation less than 25% were not calculated and reported as “–”)	–
CC(C)S(=O)(=O)c1ccccc1Nc1nc(Nc2ccc(N3CCN(C(=O)CNC(=O)CCCC(=O)Nc4cccc5c4C(=O)N(C4CCC(=O)N(C)C4=O)C5=O)CC3)cc2)nc2[nH]cnc12 (centres unmarked) [Compound 24]	–	–	–	–	–	–	–	–	16.95%	17.00%	– (compounds with degradation less than 25% were not calculated and reported as “–”)	20.40%	0.618 µM	– (compounds with degradation less than 25% were not calculated and reported as “–”)	– (compounds with degradation less than 25% were not calculated and reported as “–”)
COc1cc(N2CCC(OCC(=O)NCCNc3cccc4c3C(=O)N(C3CCC(=O)NC3=O)C4=O)CC2)ccc1Nc1nc(Nc2ccccc2S(=O)(=O)C(C)C)c2nc[nH]c2n1 (centres unmarked) [Compound 34]	–	–	–	–	–	–	–	— (compounds with decrease of cell viability less than 50% were not calculated and reported as “—”)	inactive	inactive	– (compounds with degradation less than 25% were not calculated and reported as “–”)	inactive	–	– (compounds with degradation less than 25% were not calculated and reported as “–”)	– (compounds with degradation less than 25% were not calculated and reported as “–”)
COc1cc(N2CCC(OCC(=O)NCCNC(=O)CCCC(=O)Nc3cccc4c3C(=O)N(C3CCC(=O)NC3=O)C4=O)CC2)ccc1Nc1nc(Nc2ccccc2S(=O)(=O)C(C)C)c2nc[nH]c2n1 (centres unmarked) [Compound 41]	–	–	–	–	–	–	–	— (compounds with decrease of cell viability less than 50% were not calculated and reported as “—”)	inactive	inactive	– (compounds with degradation less than 25% were not calculated and reported as “–”)	inactive	–	– (compounds with degradation less than 25% were not calculated and reported as “–”)	– (compounds with degradation less than 25% were not calculated and reported as “–”)
